This is an account of results in patent publication US20240051968A1, “METHODS FOR TREATING SPINOCEREBELLAR ATAXIA TYPE 3” (PTC Therapeutics, Inc., priority 2021, published 2024).

Assay [1] relates to Total ATXN3 (tATXN3) protein. The assay can be described thus: Endogenous Total ATXN3 (tATXN3) Protein Assay (MSD immunoassay of cell lysates). It is filed as cell-based. The note with it: cells incubated with compound 48 h; 7-point concentration curve; MSD detection in cell lysate. The gist of the method:
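Cells were plated at 10,000 per well on a 7-point, 3.16-fold compound dilution series in duplicate, with DMSO controls, and incubated 48 h at 37 °C. Lysates were run in an MSD sandwich immunoassay: mouse anti-ATXN3 capture, rabbit anti-ATXN3 secondary and SULFO-TAG anti-rabbit detection, read by electrochemiluminescence.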

Assay [2] relates to ATXN3 pre-mRNA. The assay can be described thus: RT-qPCR Assay to Quantify Exon 4 Skipping in ATXN3 pre-mRNA in Cells. It is filed as cell-based. The following applies: cells incubated with compound 24 h, 7-point concentration curve, GAPDH control. The gist of the method: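 Cells (10,000/well) treated 24 h at 37° C with 7-point, 3.16-fold compound dilutions in duplicate against DMSO controls. Lysates analysed by one-step RT-qPCR (40 cycles) for ATXN3 exon 4 skipping; percent skipping per dose fitted to dose-response to interpolate IC50.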
Background: Real-time PCR tracks product formation cycle by cycle.

SMILES strings stand for the structures.

As usually defined, the IC50 is the point on the concentration scale where inhibition reaches its midpoint. Turning to `Cc1c([C@H](C)[C@H](C)N)sc2c(NCc3ccco3)cc(Cl)nc12` [Cpd 150, 2-[(2R,3S)-3-aminobutan-2-yl]-5-chloro-N-[(furan-2-yl)methyl]-3-methylthieno[3,2-b]pyridin-7-amine], the 50% inhibitory concentration (IC50) in assay [1] and in assay [2] was no more than 500 nM each time.

As for `Cc1c([C@@H](C)[C@H](C)N)sc2c(NCc3ccco3)cc(Cl)nc12` [Cpd 151, 2-[(2S,3S)-3-aminobutan-2-yl]-5-chloro-N-[(furan-2-yl)methyl]-3-methylthieno[3,2-b]pyridin-7-amine], the IC50 in assay [1] and in assay [2] was 1000 to 1500 nM throughout.

Take `Cc1c(CCN)sc2c(NCc3ccco3)cc(Cl)nc12` [Cpd 152, 2-(2-aminoethyl)-5-chloro-N-[(furan-2-yl)methyl]-3-methylthieno[3,2-b]pyridin-7-amine]: the “IC50 (average), total ATXN3 protein” value in assay [1] was “inactive”. Further, the “IC50, exon 4 skipping in ATXN3 pre-mRNA” value in assay [2] was “inactive”.

In the case of `C[C@H](N)C(O)c1sc2c(NCc3ccco3)cc(Cl)nc2c1Br` (stereo partly drawn) [Cpd 153, (2S)-2-amino-1-(3-bromo-5-chloro-7-{[(furan-2-yl)methyl]amino}thieno[3,2-b]pyridin-2-yl)propan-1-ol], the “IC50 (average), total ATXN3 protein” value in assay [1] was “inactive”. Besides, the “IC50, exon 4 skipping in ATXN3 pre-mRNA” value in assay [2] was “inactive”.

`C[C@H](N)C(F)c1sc2c(NCc3ccco3)cc(Cl)nc2c1Br` (stereo partly drawn) [Cpd 154, 2-[(2S)-2-amino-1-fluoropropyl]-3-bromo-5-chloro-N-[(furan-2-yl)methyl]thieno[3,2-b]pyridin-7-amine]: the IC50 in assay [1] and in assay [2] was no more than 500 nM throughout.

As to `C[C@H](N)C(O)c1sc2c(NCc3cccs3)cc(Cl)nc2c1Br` (stereo partly drawn) [Cpd 155, (2S)-2-amino-1-(3-bromo-5-chloro-7-{[(thiophen-2-yl)methyl]amino}thieno[3,2-b]pyridin-2-yl)propan-1-ol], the “IC50 (average), total ATXN3 protein” value in assay [1] is “inactive”. Further, the “IC50, exon 4 skipping in ATXN3 pre-mRNA” value in assay [2] is “inactive”.

`C[C@H](N)C(F)c1sc2c(NCc3cccs3)cc(Cl)nc2c1Br` (stereo partly drawn) [Cpd 158, 2-[(2S)-2-amino-1-fluoropropyl]-3-bromo-5-chloro-N-[(thiophen-2-yl)methyl]thieno[3,2-b]pyridin-7-amine]: the concentration for half-maximal inhibition (IC50) in assay [1] and in assay [2] was no more than 500 nM in each case.

On to `C[C@H](N)C(O)c1sc2c(NCc3nccs3)cc(Cl)nc2c1Br` (stereo partly drawn) [Cpd 159, (2S)-2-amino-1-(3-bromo-5-chloro-7-{[(1,3-thiazol-2-yl)methyl]amino}thieno[3,2-b]pyridin-2-yl)propan-1-ol], for which the “IC50 (average), total ATXN3 protein” value in assay [1] is “inactive”. Also, the “IC50, exon 4 skipping in ATXN3 pre-mRNA” value in assay [2] was “inactive”.

In the case of `C[C@H](N)C(F)c1sc2c(NCc3nccs3)cc(Cl)nc2c1Br` (stereo partly drawn) [Cpd 161, 2-[(2S)-2-amino-1-fluoropropyl]-3-bromo-5-chloro-N-[(1,3-thiazol-2-yl)methyl]thieno[3,2-b]pyridin-7-amine], the values for the IC50 in assay [1] and in assay [2] were 500 to 1000 nM and no more than 500 nM, respectively.

On to `Cc1c(NC[C@H](C)N)sc2c(NCc3cccs3)cc(Cl)nc12` [Cpd 163, N^2-[(2S)-2-aminopropyl]-5-chloro-3-methyl-N^7-[(thiophen-2-yl)methyl]thieno[3,2-b]pyridine-2,7-diamine], for which the 50% inhibitory concentration (IC50) in assay [1] fell in the range of 1000 to 1500 nM; in assay [2], 500 to 1000 nM.

With `Cc1c(NC[C@@H](C)N)sc2c(NCc3cccs3)cc(Cl)nc12` [Cpd 164, N^2-[(2R)-2-aminopropyl]-5-chloro-3-methyl-N^7-[(thiophen-2-yl)methyl]thieno[3,2-b]pyridine-2,7-diamine], the IC50 in assay [1] is greater than 2000 nM; in assay [2] it was 2000 to 3000 nM.

For the compound `C[C@@H](O)[C@H](N)Cc1sc2c(NCc3ccco3)cc(Cl)nc2c1Br` [Cpd 165, (2R,3R)-3-amino-4-(3-bromo-5-chloro-7-{[(furan-2-yl)methyl]amino}thieno[3,2-b]pyridin-2-yl)butan-2-ol], the IC50 in assay [1] and in assay [2] was no more than 500 nM in each case.

For `C#C[C@H](N)Cc1sc2c(NCc3ccco3)cc(Cl)nc2c1Cl` [Cpd 166, 2-[(2R)-2-aminobut-3-yn-1-yl]-3,5-dichloro-N-[(furan-2-yl)methyl]thieno[3,2-b]pyridin-7-amine], the IC50 in assay [1] and in assay [2] was no more than 500 nM each time.

As to `C[S+]([O-])C[C@H](N)Cc1sc2c(NCc3ccco3)cc(Cl)nc2c1Cl` (stereo partly drawn) [Cpd 167, [(2R)-2-amino-3-(3,5-dichloro-7-{[(furan-2-yl)methyl]amino}thieno[3,2-b]pyridin-2-yl)propyl](methyl)sulfaniumolate], the IC50 in assay [1] and in assay [2] was no more than 500 nM each time.
